From US3959311A, “Oxotremorine antagonists” (priority 1967, dated 1976)
Like-named read-outs stand apart in the source and are kept apart here.

Key:
[1] = system: oxotremorine tremor response; assay: Oxotremorine antagonism: affinity constant from shift of median effective tremor dose of oxotremorine (Dixon up-and-down method); format: in vivo, mice; conditions: AL-301 set equal to 1.0
Procedure: It was tested in the following manner:
Four or more groups, each containing six female mice weighing 22 to 26 grams, were selected. To establish a control, each member of the first group was dosed in sequence with oxotremorine in the absence of any test compound.
In the Dixon method the first animal is treated at an arbitrarily selected level and the presence or absence of tremor response is noted. An increased or decreased dosage is then selected according to the schedule specified by the Dixon procedure for the second animal which would tend to produce a change in the tremor response.
For each test group, the increased median effective dose of oxotremorine was determined in the same manner.
To compare the potency of the test compound the affinity constant was obtained from the data. The affinity constant is that concentration of test compound which when administered blocks the oxotremorine response so that twice the concentration of oxotremorine is necessary to evoke the same response as was produced in the absence of the test compound.

[2] = system: tremoromimetic effects of oxotremorine; format: in vivo, mice
Description: (§1) This "tremorolytic" dose is designated as T. As a standard for the peripheral effect the dose of the compound in mg/kg, which doubles the diameter of the pupil, is given. This "mydriatic" dose is designated as M. The ratio between M and T will constitute a standard for specific central effect of the substance. A higher value for M/T corresponds to a higher specificity.

diameter of the pupil = assay: animal or person; format: in vivo, mice; conditions: Mus musculus
Description: as §1

[3] = system: oxotremorine-induced tremor; conditions: cited from earlier work
[4] = mydriatic dose / tremorolytic dose, higher value = higher specificity
[5] = dose which doubles the diameter of the pupil, mice, read-out: Mydriatic Dose

## OC(CCN1CCCCC1)(c1ccccc1)C1CCCCC1 (stereo not drawn) [Artane, α-cyclohexyl-α-phenyl-1-piperidine-propanol, reference compound]
[1]
  Ratio of affinity constant dosages (relative potency): 1.8

## CC(C#CCN1CCCCCC1)N1CCCC1=O (stereo not shown) [N-(1-methyl-4-perhydroazepino-2-butynyl)-pyrrolidin-2-one]
[2]; mouse, in vivo, iv
  Tremorolytic Dose (T): 0.32 mg/kg
[2]; [4]
  M/T ratio (specific central effect): 6.25
Diameter of the pupil; [5]
  ED (doubling of pupil diameter): 2 mg/kg
[1]
  Ratio of affinity constant dosages (relative potency): 9.0

## CC(C#CCN1CCCCC1)N1CCCC1=O (stereo not shown) [N-(1-methyl-4-piperidino-2-butynyl)-pyrrolidin-2-one]
[1]
  Ratio of affinity constant dosages (relative potency): 8.5

## CC(C#CCN1CCCC1)N1CCCC1=O (stereo not shown) [N-(1-methyl-4-pyrrolidino-2-butynyl)-pyrrolidin-2-one]
[2]; dose which inhibits the effect of 150 μg/kg of oxotremorine i.v., mice
  Tremorolytic Dose (T): 0.19 mg/kg
[2]; [4]
  M/T ratio (specific central effect): 3.26
Diameter of the pupil; read-out: Mydriatic Dose (M)
  ED (doubling of pupil diameter): 0.62 mg/kg
[1]
  Ratio of affinity constant dosages (relative potency): 17.0
[1]; listed as n = 4
  Ratio of affinity constant dosages (relative potency): 17

## CN1[C@@H]2CC[C@H]1C[C@@H](OC(=O)C(CO)c1ccccc1)C2 (stereo partly shown) [atropine]
[3]; in words
  antagonism of oxotremorine-induced tremor: antagonize the oxotremorine-induced tremor
  side effect: antagonism of peripheral cholinergic effects of oxotremorine: antagonizing the peripheral cholinergic effects of oxotremorine

## OC(CCN1CCCCC1)(c1ccccc1)C1CCCCC1 (stereo not shown) [benzhexol, reference compound]
[2]; mouse, in vivo
  M/T ratio (specific central effect): 0.21
[2]; mouse, in vivo, iv
  Tremorolytic Dose (T): 5.5
Diameter of the pupil; [5]
  ED (doubling of pupil diameter): 1.15 mg/kg

## CCN(CC)CCOC(=O)C1(c2ccccc2)CCCC1 [caramiphen, 1-phenylcyclopentanecarboxylic acid 2-diethylaminoethyl ester]
[3]; in vivo
  side effect: antagonism of peripheral cholinergic effects of oxotremorine: antagonizing the peripheral cholinergic effects of oxotremorine
[3]; in words
  antagonism of oxotremorine-induced tremor: antagonize the oxotremorine-induced tremor

## O=C1CCCN1CC#CCN1CCCC1 [oxotremorine, N-(4-pyrrolidino-2-butynyl)-pyrrolidin-2-one]
[3]; immediately after injection by intravenous routes, several species of laboratory animals
  effects of oxotremorine: induces violent generalized tremors, spasticity, hypokinesia and parasympathomimetic effects
